Measurements reported in US9657017B2, “Crystal form of (R)-praziquantel and preparation method and application thereof” (TONGLI BIOMEDICAL CO., LTD., priority 2013, dated 2017).
Converted amounts (≈) assume the structure as drawn. Where two headings read alike, the source gives them in different places.

Legend:
[1] = Solubility of crystal forms in water and simulated gastric-intestinal fluid; assay type: physicochemical; settings: 25° C.; for solubility at 18 h: thermodynamic from solid
Procedure: About 2 mg of each compound was respectively placed in several glass vials, and pure water, simulated gastric fluid (SGF), simulated intestinal fluid under fasted status (FaSSIF), and simulated intestinal fluid under fed status (FeSSIF) were respectively added to prepare a final sample concentration of 2 mg/mL. The samples were sonicated to be dispersed evenly and then rotated 360 degree-wise to equilibrate for 18 hours at room temperature (25° C.). After the equilibration, the samples were visually inspected to check whether they were completely dissolved, and then filtrated through […] filter membrane. The resulted filtrate was diluted with suitable solvent for HPLC analysis.

[2] = tested on: schistosoma japonicum; assay: In vitro culture anti-schistosoma japonicum activity (worm activity inhibition); assay type: cell-based; settings: for IC50: spasm or paralysis of schistosoma japonicum considered as active, in vitro culture 37° C., read-out: IC50 ± L95 (median inhibitory concentration, 95% confidence interval)
Procedure: Comparison of anti-schistosoma japonicum activity between the crystal forms of (R)-praziquantel and praziquantel in in vitro culture experiment, which was specifically as follow: […] An aliquot of the drug solution (5-50 μL) was transferred and diluted with culture medium (prepared by Tyrode's solution and calf serum at 9:1, pH 7.4, containing 100 IU/mL penicillin and 100 IU/mL streptomycin) to a desired concentration (0.0001-100 μg/mL). Japanese white rabbits and Kunming hybrid mice were infected with cercariae of schistosoma japonicum for 5-8 weeks. Under aseptic condition, mesenteric vein and liver were perfused with normal saline, and the recovered schistosomes were washed with Tyrode's solution twice and then transferred into culture medium and cultured at 37° C. for use. […] The worm activity and changes on body surface were observed under stereomicroscope and inverted microscope at room temperature. The active levels of worm were defined as below: • ++++ Worm twitching or rolling intensively; • +++ Worm wriggling or paroxysmally trembling frequently; • ++ Worm migrating freely with enterocinesia; • + Movement of worm weakened and enterocinesia disappeared; • ± No movement of worm was observed under stereomicroscope (×30), and slight movement of mouth and ventral suckers were observed under inverted microscope (×250); • − No movement of worm was observed under inverted microscope (×250); • wherein +++ and ++++ refer to worm excitement; ++ refers to normal worm activity; + and ± refers to inhibition of worm activity; worm was considered to death if the result was still negative after observing for 5 min.

[3] = tested on: clonorchis sinensis; assay: In vivo anti-parasitic activity in SD rats infected with clonorchis sinensis
Procedure: Evaluation of in vivo anti-parasitic activity of (R)-praziquantel crystal form in SD rats infected with clonorchis sinensis, which was specifically as follow: Each of total 29 SD rats with 200˜300 g of body weight were given with 30 metacercariae of clonorchis sinensis via gavage intragastrically. On Day 35 post infection, fecal smear examination was conducted, and worm eggs of clonorchis sinensis were found in all of the smears which confirmed successful modeling. Subsequently, the rats were randomly divided into (R)-praziquantel group (n=14) and blank control group (n=15). […] Seven days after the end of the treatment, worms are recovered from the bile ducts under sterility condition. The averaged number of recovered worms, mean recovery rate of worms and cure rate after treatment were calculated, and the results are shown in Table 5.

[4] = rat, in vivo, po, 75 mg/kg
Text: Investigation on characteristic of the plasma concentrations of (R)-praziquantel crystal form in rats after oral administration, which was specifically as follow: […]

[5] = 100 mg/kg gavage twice a day for two days

| Structure (SMILES) | solubility at 18 h ([1]; FaSSIF (simulated intestinal fluid, fasted), equilibrated 18 hours, read-out: Average solubility) | solubility at 18 h ([1]; FeSSIF (simulated intestinal fluid, fed), equilibrated 18 hours, read-out: Average solubility) | solubility at 18 h ([1]; SGF (simulated gastric fluid), equilibrated 18 hours, read-out: Average solubility) | solubility at 18 h ([1]; Water, equilibrated 18 hours, read-out: Average solubility) | solubility at 18 h ([1]; water, SGF, FaSSIF and FeSSIF, range over media, read-out: solubility in water and in simulated gastro-intestinal fluid) | effect on schistosoma japonicum worms ([2]; in vitro culture) | IC50 [2] | Average solubility ([1]; FaSSIF (simulated intestinal fluid, fasted), equilibrated 18 hours) | Average solubility ([1]; FeSSIF (simulated intestinal fluid, fed), equilibrated 18 hours) | Average solubility ([1]; SGF (simulated gastric fluid), equilibrated 18 hours) | Average solubility ([1]; Water, equilibrated 18 hours) | IC50 relative to that of praziquantel crystal form ([2]; in vitro culture, P<0.01) | Cure rate [3, 5] | Mean recovery rate of worms [3, 5] | No. of Cured animal ([3]; 100 mg/kg gavage twice a day for two days, 14 animals, worms recovered 7 days after treatment) | No. of Average of recovered worm, X ± SD ([3]; 100 mg/kg gavage twice a day for two days, worms from bile ducts) | worm body in rat feces ([3]; treatment group) | area under plasma concentration-time curve [4] | peak plasma concentration [4] | time to reach peak plasma concentration [4] |
| --- | --- | --- | --- | --- | --- | --- | --- | --- | --- | --- | --- | --- | --- | --- | --- | --- | --- | --- | --- | --- |
| O=C(C1CCCCC1)N1CC(=O)N2CCc3ccccc3C2C1 (racemic) [Praziquantel crystal form, praziquantel] | 193 µg/mL (≈ 618 µM) | 313 µg/mL (≈ 1000 µM) | 192 µg/mL (≈ 615 µM) | 199 µg/mL (≈ 637 µM) | 190 to 310 µg/mL (≈ 608 to 992 µM) | induce contraction and paralysis | 42 ± 18 nM | – | – | – | – | – | – | – | – | – | – | – | – | – |
| O=C(C1CCCCC1)N1CC(=O)N2CCc3ccccc3[C@@H]2C1 [(R)-praziquantel crystal form, (R)-praziquantel] | – | – | – | – | – | induce contraction and paralysis | 8 ± 4 nM | 302 µg/mL | 433 µg/mL | 303 µg/mL | 305 µg/mL | ⅕ | 100% | 0% | 14 | 0 | no worm body found | 3572 ± 1793 ng·h/mL | 3132 ± 1440 ng/mL | 15 min |
